Data as given in article PMC9250534, “Synthesis and direct assay of large macrocycle diversities by combinatorial late-stage modification at picomole scale” (Nature Communications, 2022).

Biological target: MDM2 (Homo sapiens, UniProt Q00987)
Test: MDM2 binding screen of Libraries 3 and 4: displacement of fluorescent probe F-M8 at 750 nM macrocycle
Method: The cyclic peptide scaffolds required for Libraries 3 and 4 were synthesized as described for those used in Library 2. Due to the presence of many N-methylated amino acids which are more difficult to couple, 200 mM HOAt was applied together with HATU. The scaffolds were diluted to 2 mM in DMSO, and 15 nL were transferred using acoustic dispensing, followed by 15 nL DMSO containing carboxylic acids (40 mM, 20 equiv.), HBTU (40 mM) and DABCO (40 mM). After 6 h reaction at room temperature, 370 nL of DMSO was added to each well, followed by 5 μL of 100 mM Tris-Cl pH 7.4 containing 0.01% v/v Tween20, for quenching overnight.

[1] = Panel b, Library 3: 63 scaffolds combinatorially acylated with 15 carboxylic acids at 30 picomole scale, displacement of fluorescent peptide probe, macrocycle 750 nM
[2] = Panel c, Library 4: best nine scaffolds and 15 additional carboxylic acids, displacement of fluorescent probe

Sequence of MDM2 (Q00987 whole entry): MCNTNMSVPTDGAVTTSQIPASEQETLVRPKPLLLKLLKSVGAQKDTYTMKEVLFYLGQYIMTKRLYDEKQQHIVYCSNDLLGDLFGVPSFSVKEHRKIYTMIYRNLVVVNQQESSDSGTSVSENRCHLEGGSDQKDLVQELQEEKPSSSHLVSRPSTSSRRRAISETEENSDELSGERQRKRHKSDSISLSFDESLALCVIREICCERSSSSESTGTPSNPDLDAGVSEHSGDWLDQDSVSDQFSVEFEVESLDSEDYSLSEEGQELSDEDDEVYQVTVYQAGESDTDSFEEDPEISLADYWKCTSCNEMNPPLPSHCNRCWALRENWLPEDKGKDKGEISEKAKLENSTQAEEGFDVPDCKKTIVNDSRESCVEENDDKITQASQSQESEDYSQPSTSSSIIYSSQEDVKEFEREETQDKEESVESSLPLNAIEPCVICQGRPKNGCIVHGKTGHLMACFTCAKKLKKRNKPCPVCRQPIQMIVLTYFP

| SMILES | fraction of fluorescent probe displaced [1] | fraction of fluorescent probe displaced [2] |
| --- | --- | --- |
| O=C(CCS(=O)(=O)c1ccccc1)NC[C@@H]1NC(=O)[C@H]2CCCN(C2)C(=O)CCSSCCNC(=O)[C@H](Cc2c[nH]c3ccccc23)NC1=O [X-Nip-Dap-Trp + Acid 114] | -0.012 |  |
| CC(Oc1cccc(Cl)c1)C(=O)NCC1NC(=O)C2CCCN(C2)C(=O)CCSSCCNC(=O)C(Cc2ccc3ccccc3c2)NC1=O (mixture of isomers) [X-Nip-D-Dap-2-Nal + Acid 113] | -0.012 |  |
| O=C1CCSSCCNC(=O)[C@H](Cc2cccc3ccccc23)NC(=O)[C@@H](CNC(=O)c2ccc(Cl)s2)NC(=O)C2(CC2)CN1 [X-Amcp-D-Dap-1-NaI + Acid 14] | 0.008 |  |
| O=C(/C=C/c1ccc2ccccc2c1)NC[C@H]1NC(=O)[C@H]2CCCN(C2)C(=O)CCSSCCNC(=O)[C@H](Cc2c[nH]c3ccccc23)NC1=O [X-Nip-D-Dap-Trp + Acid 112] | -0.012 |  |
| Cn1cc(C[C@@H]2NC(=O)[C@H](CNC(=O)C3COc4ccccc4O3)NC(=O)[C@@H]3CN(CCO3)C(=O)CCSSCCNC2=O)c2ccccc21 (stereo partly drawn) [X-Cop-Dap-Me-Trp + Acid 115] | 0.015 |  |
| O=C1CCSSCCNC(=O)C(Cc2c[nH]c3ccccc23)NC(=O)CN(CCNC(=O)C2CC2c2ccccc2)C(=O)C2(CC2)CN1 (stereo not shown) [X-Amcp-N-Aeg-Trp + Acid 105] | -0.015 |  |
| O=C(O)/C=C/c1cccc(Cl)c1 [Acid 121] |  | -0.00464 |
| Cn1cc(C[C@@H]2NC(=O)[C@H](CNC(=O)c3ccc(Cl)cc3)NC(=O)[C@@H]3CN(CCO3)C(=O)CCSSCCNC2=O)c2ccccc21 [X-Cop-Dap-Me-Trp + Acid 25] | 0.015 |  |
| O=C(O)c1ccc2ccccc2c1 [Acid 107] | -0.002 |  |
| O=C(NC[C@@H]1NC(=O)[C@H]2CCCN(C2)C(=O)CCSSCCNC(=O)[C@H](Cc2c[nH]c3ccccc23)NC1=O)c1cnc2ccccc2n1 [X-Nip-Dap-Trp + Acid 130] |  | 0.036 |
| CN1C(=O)[C@@H](CNC(=O)/C=C/c2ccncc2)NC(=O)C2(CC2)CNC(=O)CCSSCCNC(=O)[C@@H]1Cc1c[nH]c2ccccc12 [X-Amcp-D-Dap-NMe-Trp + Acid 106] | -0.015 |  |
| O=C(NC[C@@H]1NC(=O)[C@@H]2CN(CCO2)C(=O)CCSSCCNC(=O)[C@H](Cc2c[nH]c3ccccc23)NC1=O)c1ccc2ccccc2c1 [X-Cop-Dap-Trp + Acid 107] | 0.108 |  |
| Cn1cc(C[C@@H]2NC(=O)[C@@H](CNC(=O)/C=C/c3ccc(Cl)cc3)NC(=O)[C@H]3CCCN(C3)C(=O)CCSSCCNC2=O)c2ccccc21 [X-Nip-D-Dap-Me-Trp + Acid 108] | 0.015 |  |
| O=C1CCSSCCNC(=O)[C@@H](Cc2c[nH]c3ccccc23)NC(=O)[C@@H](CNC(=O)c2cccc(Oc3ccccc3)c2)NC(=O)C2(CC2)CN1 [X-Amcp-D-Dap-D-Trp + Acid 111] | -0.019 |  |
| O=C(/C=C/c1cccc(Cl)c1)NC[C@@H]1NC(=O)[C@H]2CCCN(C2)C(=O)CCSSCCNC(=O)[C@H](Cc2cccc3ccccc23)NC1=O [X-Nip-Dap-1-NaI + Acid 121] |  | -0.00464 |
| O=C1CCSSCCNC(=O)[C@H](Cc2cccc3ccccc23)NC(=O)CN(CCNC(=O)c2ccc(Cl)cc2)C(=O)C2(CC2)CN1 [X-Amcp-N-Aeg-1-NaI + Acid 25] | -0.012 |  |
| O=C1CCSSCCNC(=O)[C@H](Cc2ccc3ccccc3c2)NC(=O)[C@@H](CNC(=O)c2ccc(Cl)s2)NC(=O)C2(CC2)CN1 [X-Amcp-D-Dap-2-Nal + Acid 14] | 0.00133 |  |
| O=C(/C=C/c1ccc(OCc2ccccc2)cc1)NC[C@@H]1NC(=O)[C@@H]2CN(CCO2)C(=O)CCSSCCNC(=O)[C@H](Cc2c[nH]c3cc(Cl)ccc23)NC1=O [X-Cop-Dap-Cl-Trp + Acid 110] | 0.021 |  |
| Cn1cc(C[C@@H]2NC(=O)CN(CCNC(=O)c3ccc(Cl)s3)C(=O)[C@H]3CCCN(C3)C(=O)CCSSCCNC2=O)c2ccccc21 [X-Nip-N-Aeg-Me-Trp + Acid 14] | -0.012 |  |
